In ChEMBL document CHEMBL1201862, “PubChem BioAssay data set” (2004):
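48-hour exposure; five concentrations; linearly interpolated endpoints. Here, GI50 denotes the concentration required for 50% inhibition of growth.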 Calls of active or inactive are those of the source. Rule as the data show it: active = GI50 up to about 1.1 µM and inactive = higher. Non-standard residues stand in square brackets, D forms with d. Residues, ends and D or L forms follow the SMILES beside them. ξ: configuration not given here. *: point of attachment. NMeF = CN[C@@H](Cc1ccccc1)C(=O)O; NMeN = CN[C@@H](CC(N)=O)C(=O)O; NMeV = CN[C@H](C(=O)O)C(C)C; ξNMeV = CNC(C(=O)O)C(C)C; Boc = CC(C)(C)OC(=O)*; ξNMeA = CNC(C)C(=O)O; ξV = CC(C)C(N)C(=O)O

Columns and labels:
Assay in all cases: NCI anticancer screen, dose series, 48 h
[1] = test system: SNB-75
[2] = test system: ACHN
[3] = test system: UACC-257
[4] = test system: RXF 393
[5] = test system: NCI-H460
[6] = test system: MDA-N
[7] = test system: TK-10
[8] = test system: MDA-MB-435
[9] = test system: SN12C
[10] = test system: HCC 2998
[11] = test system: NCI-H226
[12] = test system: OVCAR-8
[13] = test system: OVCAR-3
[14] = test system: SR
[15] = test system: SF-295
[16] = test system: A498
[17] = test system: SK-MEL-5
[18] = test system: LOX IMVI
[19] = test system: DU-145
[20] = test system: KM12

| SMILES | GI50 [1] | GI50 [2] | GI50 [3] | GI50 [4] | GI50 [5] | GI50 [6] | GI50 [7] | GI50 [8] | GI50 [9] | GI50 [10] | GI50 [11] | GI50 [12] | GI50 [13] | GI50 [14] | GI50 [15] | GI50 [16] | GI50 [17] | GI50 [18] | GI50 [19] | GI50 [20] |
| --- | --- | --- | --- | --- | --- | --- | --- | --- | --- | --- | --- | --- | --- | --- | --- | --- | --- | --- | --- | --- |
| C[C@H]1[C@H](C)CC[C@]2(C(=O)OC3OC(CO)C(O)C(O)C3O)CC[C@]3(C)C(=CC[C@@H]4[C@@]5(C)C[C@H]6OC(=O)c7cc(O)c(O)c(O)c7-c7c(cc(O)c(O)c7O)C(=O)O[C@@H]6C(CO)(CO)[C@@H]5CC[C@]43C)[C@H]12 (stereo not given in full) | > 100 µM (inactive) | > 100 µM (inactive) | > 100 µM (inactive) | > 100 µM (inactive) | 45.1 µM (inactive) | 25.5 µM (inactive) | > 100 µM (inactive) | 18.7 µM (inactive) | 58.3 µM (inactive) | 82.4 µM (inactive) | > 91.8 µM (inactive) | 55.8 µM (inactive) | > 43 µM (inactive) | 27 µM (inactive) | 40.6 µM (inactive) | > 100 µM (inactive) | 72.9 µM (inactive) | 16.4 µM (inactive) | > 100 µM (inactive) | 42.9 µM (inactive) |
| COC(=O)C(C)N(C)C(=O)[C@H](CC(N)=O)N(C)C(=O)[C@@H]1CCCN1C(=O)[C@H](C(C)C)N(C)C(=O)C(C(C)C)N(C)C(=O)[C@H](Cc1ccccc1)N(C)C(=O)C(NC(=O)OC(C)(C)C)C(C)C (stereo not given in full) (Boc-[ξV][NMeF][ξNMeV][NMeV]P[NMeN][ξNMeA]-OMe) | 6.17 µM (inactive) | > 50 µM (inactive) | 25.6 µM (inactive) | 12 µM (inactive) | 37.2 µM (inactive) | 22.6 µM (inactive) | 21.2 µM (inactive) | 23.2 µM (inactive) | 26 µM (inactive) | 18.8 µM (inactive) | 12.1 µM (inactive) | 17.5 µM (inactive) | 12.5 µM (inactive) | 5.15 µM (inactive) | 12 µM (inactive) | 44.4 µM (inactive) | 17.2 µM (inactive) | 9.44 µM (inactive) | 28.8 µM (inactive) | 11.2 µM (inactive) |
| O=C(O)C1CC(O)CN1 (stereo not given) | > 100 µM (inactive) | > 100 µM (inactive) | > 100 µM (inactive) | > 100 µM (inactive) | > 100 µM (inactive) | > 100 µM (inactive) | > 100 µM (inactive) | > 100 µM (inactive) | > 100 µM (inactive) | > 100 µM (inactive) | > 100 µM (inactive) | > 100 µM (inactive) | > 100 µM (inactive) | > 100 µM (inactive) | > 100 µM (inactive) | > 100 µM (inactive) | > 100 µM (inactive) | > 100 µM (inactive) | > 100 µM (inactive) | > 100 µM (inactive) |
| CCCc1cc(=O)oc2c3c(c4c(c12)OC(C)(C)C=C4)O[C@@H](C)[C@H](C)C3=O | 13.6 µM (inactive) | 12.4 µM (inactive) | 19.7 µM (inactive) | > 10 µM (inactive) | 15.8 µM (inactive) | 17.3 µM (inactive) | 20.7 µM (inactive) | 21.9 µM (inactive) | 18.7 µM (inactive) | 15.3 µM (inactive) | 18.2 µM (inactive) | 17.1 µM (inactive) | 17.2 µM (inactive) | 10.2 µM (inactive) | 16.6 µM (inactive) | 14.7 µM (inactive) | 15.8 µM (inactive) | 18.7 µM (inactive) | 19.5 µM (inactive) | 13.6 µM (inactive) |
| O=C(NNC(=O)c1ccccc1O)c1cccc(Br)c1 | > 71.8 µM (inactive) | 7 µM (inactive) | > 77.6 µM (inactive) | > 100 µM (inactive) | 8.43 µM (inactive) | > 57.5 µM (inactive) | > 100 µM (inactive) | 37.9 µM (inactive) | 98.9 µM (inactive) | 17.7 µM (inactive) | 23.2 µM (inactive) | 20.9 µM (inactive) | 8.47 µM (inactive) | 12.9 µM (inactive) | 27.3 µM (inactive) | > 92.9 µM (inactive) | 24.2 µM (inactive) | 15.2 µM (inactive) | 30.2 µM (inactive) | > 42.6 µM (inactive) |
| Cc1cc2c(c3oc(C(O)(CO)C4CO4)cc(=O)c13)C(=O)c1c(O)cccc1C2=O (stereo not given) | 0.00122 µM (active) | 0.000278 µM (active) | 0.00279 µM (active) | 0.00125 µM (active) | 0.000372 µM (active) | 0.00131 µM (active) | 0.00244 µM (active) | 0.00121 µM (active) | 0.000674 µM (active) | 0.00131 µM (active) | 0.00237 µM (active) | 0.000569 µM (active) | 0.0029 µM (active) | 0.000213 µM (active) | 0.00139 µM (active) | 0.00212 µM (active) | 0.002 µM (active) | 0.000356 µM (active) | 0.000552 µM (active) | 0.00104 µM (active) |
